From patent US9163011B2, “Oxazine derivatives and their use in the treatment of disease” (NOVARTIS AG, priority 2011, dated 2015)
pIC50: −log10 of the molar value.

Assays:
[1] = target: Human BACE-1 (Homo sapiens (Human), UniProt P56817); experiment: Test 1: Inhibition of Human BACE-1; assay type: biochemical; conditions: recombinant BACE-1, pH 4.5, 1 hour preincubation
Procedure: Test 1: Inhibition of Human BACE-1
(§1) Recombinant BACE-1 (extracellular domain, expressed in baculovirus and purified using standard methods) at 0.1 to 1 nM concentrations is incubated with the test compound at various concentrations for 1 hour at room temperature in 100 mM acetate buffer, pH 4.5, containing 0.1% CHAPS. Activity was measured using a final concentration of 3 μM of the fluorescence-quenched substrate Q-C(HSO3)-Ile-Asp-Leu-Ala-Val-Leu-Asp-HN—CH2—CH2-Mca, where Q=2-nitro-5-amino benzoic acid and Mca=7-methoxy-4-coumarinyl acetic acid. Catalytic turnover was monitored in a Spectramax Gemini fluorescence plate reader (Molecular Devices) in black 96-well microplates using excitation/emission wavelength of 325 nm and 400 nm, respectively. Fluorescence increase was followed for 15 min, in 1 minute's intervals. The fluorescence/time slopes were calculated from duplicate wells and from wells without inhibitor and the IC50 values were calculated using a logistic 4-parameter model.

[2] = target: Human BACE-2 (Homo sapiens (Human), UniProt Q9Y5Z0); experiment: Test 2: Inhibition of Human BACE-2; assay type: biochemical; conditions: recombinant BACE-2, pH 4.5, 1 hour preincubation
Chain of Human BACE-2 (Q9Y5Z0 63-473): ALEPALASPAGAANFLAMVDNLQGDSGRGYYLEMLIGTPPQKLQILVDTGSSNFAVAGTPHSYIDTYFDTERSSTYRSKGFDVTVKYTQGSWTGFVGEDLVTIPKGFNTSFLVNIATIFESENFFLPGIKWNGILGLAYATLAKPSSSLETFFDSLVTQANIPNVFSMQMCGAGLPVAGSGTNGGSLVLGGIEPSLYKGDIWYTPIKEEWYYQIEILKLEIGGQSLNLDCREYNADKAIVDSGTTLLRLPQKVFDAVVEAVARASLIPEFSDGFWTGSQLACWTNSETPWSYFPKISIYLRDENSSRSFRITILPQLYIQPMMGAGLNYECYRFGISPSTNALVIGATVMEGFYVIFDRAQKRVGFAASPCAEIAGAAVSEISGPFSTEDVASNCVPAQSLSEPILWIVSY
Procedure: Test 2: Inhibition of Human BACE-2
as §1, with “BACE-2” for “BACE-1”

[3] = Test 4: Inhibition of Cellular Release of Amyloid Peptide 1-40; assay type: cell-based, Chinese hamster; conditions: Cricetulus griseus; CHO cells with human APP, 24 hours with compound; read-out: Test 4 Amyloid-β1-40 release IC50
Procedure: The cells are plated at a density of 8000 cells/well into 96-well microtiter plates and cultivated for 24 hours in DMEM cell culture medium containing 10% FCS. The test compound is added to the cells at various concentrations, and the cells are cultivated for 24 hours in the presence of the test compound. […] The potency of the compound is calculated from the percentage of inhibition of amyloid peptide release as a function of the test compound concentration.

[4] = tested on: Soluble Abeta40 levels in the rat brain and CSF; experiment: Test 5: In Vivo Inhibitory Activity (Abeta lowering in rat brain and CSF); conditions: male Sprague-Dawley rats, oral gavage, 10 micromoles per kilogram, 4 hours prior to sacrifice; n.s.=not statistically significant
Procedure: Test 5: In Vivo Inhibitory Activity of Example Compounds
Male Sprague-Dawley rats, 220-280 g weight, (Charles River, France) were dosed by oral gavage with vehicle alone (0.1% Tween80, 0.5% methylcellulose in water) or with compound suspended in vehicle at a dose of 10 micromoles compound per kilogram body weight, 4 hours prior to sacrifice. The 4 hour timepoint was selected in order to compare the activity of compounds that have sufficient pharmacokinetic and biodistribution properties to reduce total brain Abeta within approximately three half-lives of the rat brain Abeta40 peptide.
Immediately prior to sacrifice, anaesthetized rat (spontaneous inhalation, 2-5% Isoflurane and air) were fixed in a stereotaxic apparatus on a raised platform, with anesthesia maintained though a nose cone. The angle of the head was tilted downward, perpendicular to the body, and a hypodermic needle lowered through the skin behind the occipital ridge, into the Cisterna magna. Cerebrospinal fluid (CSF) was withdrawn (˜50-100 μL), dispensed into tubes (protein Lo-bind Eppendorf tubes for Abeta40 analysis, normal Eppendorph tubes for compound analysis), frozen on dry ice and stored at −80° C. until analysis. Rats were then immediately decapitated under anesthesia, trunk blood collected for analysis of compound levels and the brain retrieved. One half-forebrain was dissected by removing the cerebellum and olfactory bulbs, frozen in three pieces on a metal plate pre-cooled on frozen CO2 and stored in tubes at −80° C. until analysis for Abeta40. For the other half-brain, olfactory bulbs were discarded and a sagittal slice taken from the medial aspect, weighing ˜200-400 mg, placed in glass HPLC tubes and frozen on dry ice until analysis for compound levels.
Soluble Abeta40 levels in the rat brain and CSF were quantified using a Meso Scale Discovery (MSD) 96-well MULTI-ARRAY human/rodent (4G8) Abeta40 Ultrasensitive Assay (#K110FTE-3, Meso Scale Discovery, Gaithersburg, USA). Forebrain sample homogenates were prepared by sonication in 9 volumes (w/v) of ice cold TBA. Fifty μL of 2% TX-100 in TBS-complete was added to 50 μL aliquots of the homogenate to reach a final concentration of 1% TX-100 in a 1:20 dilution. Samples were incubated on ice for 15 min interrupted with 3 short vortexing steps, then centrifuged (100 000×g, 4° C., 15 min), and 50 μL of supernatant collected. This was further diluted 1:5 with 3% Blocker A solution from the MSD kit to a final dilution of 1:100 and applied to the MSD plate. CSF samples containing blood were excluded. All other CSF samples were diluted with 1% Blocker A solution (from manufacturers kit) to reach a 1:20 CSF dilution. Calibration curves were prepared in 1% Blocker A solution spiked with synthetic Abeta1-40 peptide. Samples and calibration standards were applied in duplicate at a volume of 25 μL per well. Abeta40 concentrations of samples were estimated from the standard curve using SOFTmax PRO4.0.

Chain of Human BACE-1 (P56817 46-457): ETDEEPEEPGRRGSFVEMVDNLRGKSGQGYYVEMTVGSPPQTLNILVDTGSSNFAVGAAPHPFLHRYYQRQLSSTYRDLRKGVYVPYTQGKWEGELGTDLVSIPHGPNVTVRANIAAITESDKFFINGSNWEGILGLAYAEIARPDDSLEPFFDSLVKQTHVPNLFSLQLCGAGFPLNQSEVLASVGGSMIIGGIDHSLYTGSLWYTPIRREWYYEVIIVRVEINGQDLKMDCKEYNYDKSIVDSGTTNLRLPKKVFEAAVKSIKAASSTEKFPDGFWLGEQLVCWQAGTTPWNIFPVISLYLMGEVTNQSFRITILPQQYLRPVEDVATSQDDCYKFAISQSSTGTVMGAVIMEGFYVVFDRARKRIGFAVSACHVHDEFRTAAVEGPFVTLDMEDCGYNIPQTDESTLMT

SMILES	pIC50 [1]	pIC50 [2]	pIC50 [3]	Abeta lowering in rat CSF [4]	Abeta lowering in rat forebrain [4]
C[C@]1(c2nc(NC(=O)c3ncc(C#N)cc3Cl)ccc2F)N=C(N)OCC1(F)F [Example 2, 3-Chloro-5-cyano-pyridine-2-carboxylic acid [6-((R)-2-amino-5,5-difluoro-4-methyl-5,6-dihydro-4H-[1,3]oxazin-4-yl)-5-fluoro-pyridin-2-yl]-amide]	7.92	7.15	8.10	−70.7%	−67.1%
C[C@]1(c2nc(NC(=O)c3nn(C(F)F)cc3Cl)ccc2F)N=C(N)OCC1(F)F [Example 30, 4-Chloro-1-difluoromethyl-1H-pyrazole-3-carboxylic acid [6-((R)-2-amino-5,5-difluoro-4-methyl-5,6-dihydro-4H-[1,3]oxazin-4-yl)-5-fluoro-pyridin-2-yl]-amide]	7.72	8.15	7.89	−55.2%	−46.6%
